Laboratory results as given in patent publication US20220241437A1, “ATHER[…] AGENTS AND METHODS OF USING THE SAME” (THE GENERAL HOSPITAL CORPORATION, priority 2015, published 2022).
Read-outs that look alike come from different tables or passages of the source.

Experiments:
[1] = tested on: atheroma; assay: NIRF / multi-wavelength fluorescence reflectance imaging (FRI) of resected aortas in rabbit atherosclerosis model; assay type: in vivo; conditions: for co-localization in atherosclerotic zones by FRI: MB 1 mg/kg 24 hours and ICG 0.5 mg/kg 0.5 hours before imaging, rabbit m464
From the text: New Zealand white rabbits (3-4 kg, Charles River Laboratories, n=2) were fed a high cholesterol diet (0.3% total cholesterol, 5% peanut oil; Research Diets) and were subjected to an infrarenal abdominal aorta injury using a 3F Fogarty embolectomy balloon (Edwards Lifesciences). The 3F balloon was inserted percutaneously via the femoral artery, inflated to nominal pressure, and withdrawn under tension and repeated. After recovery from the injury, the rabbits were continued on the 0.3% high cholesterol diet, and their total serum cholesterol levels were routinely measured (Hemagen Diagnostics).
24 hours prior to atheroma imaging, 1 mg/kg concentration of MB in a phosphate buffer saline solution was administered to the rabbit subjects intravenously.
28 days after aortic injury and continuation on the high cholesterol diet, the rabbits were anesthetized and imaged using various imaging modalities. An aortic angiography (ARCADIS Varic C-arm fluoroscopy unit, Siemens) was performed on the rabbits with a manual contrast injection. After the angiography, an intravascular ultrasound (IVUS) was performed using a catheter (iLab, Boston Scientific). The IVUS catheter was used with an automated 0.5 mm/second pullback across the previously injured aortic region to assess plaque burden. Finally, the rabbit subjects underwent near-infrared fluorescence optical coherence tomography (NIRF-OCT) imaging.
Following multimodality imaging, the rabbits were euthanized, and their aortas were removed and placed in saline at 4° C. The freshly resected aortas were imaged using multi-wavelength fluorescence reflectance imaging (FRI) with fluorescein isothiocyanite (FITC) and MB having emission wavelengths of 535 nm and 700 nm, respectively. While using the FRI system (Kodak ImageStation 4000, Carestream Health), the excitation source used for triggering FITC's autofluorescence was focused around 470 nm with an exposure time of 4 seconds. MB's near-infrared fluorescence was triggered by excitation wavelengths around 630 nm for 64 seconds. […] The target-to-background ratios(TBRs) were calculated for each ROI as the mean plaque fluorescence divided by the background fluorescence measured in the adjacent normal vessel.
A concentration of 1 mg/kg MB in phosphate buffer saline solution was co-injected with a 0.5 mg/kg solution of indocyanine green (ICG) into the aorta of the rabbit subject, m464, 24 hours and 0.5 hours before imaging, respectively. Fluorescence reflectance imaging (FRI) was performed to evaluate uptake and distribution of MB and ICG. […]
The TBRs were calculated as the mean fluorescence divided by the background fluorescence of the adjacent normal aorta. […]

[2] = Half-life of MB in rabbit bloodstream from fluorescence intensity over time; assay type: in vivo; conditions: blood, intravenous, 1 mg/kg
Procedure: The methylene blue (MB) binding and uptake was evaluated in a rabbit model of atherosclerosis of the abdominal aorta. […] The half-life for MB in rabbit bloodstreams was measured in two subjects, m463 and m464 that had been subjected to a high cholesterol diet and the high inflammation protocol.

[3] = phosphate buffer saline solution; cited from earlier work
[4] = healthy human volunteers, intravenous (Peter et al. 2000); cited from earlier work
[5] = tested on: atherosclerotic lesions; assay: Fluorescence microscopy, histology and RAM11 immunohistochemistry of aorta/vessel cross-sections; assay type: in vivo, rabbit
Procedure: A histology analysis for the aortas was then performed. The excised aortas were filled with an optimal cutting temperature compound and then snap frozen on dry ice. Using a cryostat (Leica CM3050 S), 8 μm sections of the aortas were obtained. The tissue sections were stained for hemotoxylin and eosin (H&E), Masson's Trichrome, and Oil Red 0 (ORO) histological imaging. Additionally, immunohistochemistry tests were performed for macrophages (RAM11; Dako).
Unstained tissue sections were imaged with a multi-wavelength fluorescence microscope (Nikon Eclipse 90i) for FITC and MB. FITC's autofluorescence emissions at 535 nm were excited with a 480 nm source, and MB's near-infrared fluorescent emissions at 700 nm were excited with a 630 nm Cy5.5 source.
The co-localization of MB and ICG found through FRI was also verified using high-resolution epifluorescence microscopy of fresh-frozen tissue cross-sections from the areas of interest outlined in the FRI results. […] Further, the MB binding was associated with cellular uptake when evaluating sections counterstained with a fluorescent nuclear stain.
Fluorescent microscopy (FM) was performed on a cross-section of the aorta of m464 in the fluorescein isothiocyanite (FITC) and Cy5 channels. […] The white areas represent the near-infrared fluorescence of MB under a Cy5.5 source. The grey areas represent the autofluorescence of FITC. There is little overlap between the MB and FITC areas, evidencing the unique uptake and binding profile for MB in atherosclerotic structures not targeted by other imaging agents. […] Again, the distinction between the areas of MB binding and FITC autofluorescence indicate MB's utility as an atheroma targeting agent unlike any other. Further, the TBR of MB in FIGS. 6A and 6B illustrates the robustness of the targeting profile of MB.
Moreover, FIGS. 7A-7C show FM images of an axial section of a subject's vessel including a venous thrombus after undergoing vessel injury according to the high inflammation protocol. The subject was injected with a 1 mg/kg MB concentration in a phosphate buffer saline solution 24 hours prior to imaging. […] This again evidences the unique binding pattern that MB may offer for vascular imaging.
MB binding in the aortas of the subjects was also evaluated using traditional histological stains. A tissue cross-section fluorescently imaged to evaluate MB uptake was further treated with a hemotoxylin and eosin (H&E) stain. […] Even less cellular areas were also found to have MB uptake.
Finally, the cross-section was imaged using immunohistochemical-staining techniques. The immunohistochemical stain RAM11 which is a known macrophage marker was used to cross-correlate the MB binding images. […] These areas where not limited to a specific location. For example, one area of consistent MB and RAM11 co-localization was located near the luminal side of internal elastic lamina as well as other regions of the atheroma.

Row | Structure (SMILES) | co-localization in atherosclerotic zones by FRI [1] | half-life ([2]; 1 phase exponential decay of fluorescence intensity, read-out: half-life of MB in bloodstream (converted)) [h] | half-life ([2]; mean of m463 and m464, read-out: average of the MB half-life in the rabbits tested (converted)) [h] | half-life ([2]; rabbit subject m463, 1 phase exponential decay of fluorescence intensity, read-out: half-life of MB in bloodstream (converted)) [h] | half-life ([2]; rabbit subject m463, read-out: half-life of MB in bloodstream (converted)) [h] | half-life ([2]; read-out: half-life of MB in bloodstream (converted)) [h] | molar attenuation coefficient [3] | quantum yield [3] [%] | quenching threshold [3] [µM] | deposition in plaques detected by NIRF imaging ([1]; 1 mg/kg intravenous, rabbit atherosclerosis model) | target-to-background ratios (TBRs) of aortas ([1]; MB 1 mg/kg i.v. 24 hours before imaging, versus aortas without MB, FRI) | blood half-life [4] [h] | targeting to atheroma in FM image of aortic cross-section ([5]; 1 mg/kg i.v. 24 hours before imaging, NIRF absent from normal arterial wall) | uptake in vessel with venous thrombus (FM) ([5]; 1 mg/kg in phosphate buffer saline 24 hours prior to imaging) | association of uptake with macrophages (RAM11 staining) ([5]; aortic cross-section) | depth of binding in lesions (H&E histology) ([5]; aortic cross-section) | localization of uptake by high-resolution epifluorescence microscopy ([5]; fresh-frozen tissue cross-sections)
1 | CC1(C)C(/C=C/C=C/C=C/C=C2\N(CCCCS(=O)(=O)O)c3ccc4ccccc4c3C2(C)C)=[N+](CCCCS(=O)(=O)[O-])c2ccc3ccccc3c21 [ICG, Indocyanine green] | co-localization of MB and ICG in the atherosclerotic zones of the aorta |  |  |  |  |  |  |  |  |  |  |  |  |  |  |  | 
2 | CN(C)c1ccc2nc3ccc(N(C)C)cc3[s+]c2c1.[Cl-] [MB, [7-(dimethylamino)phenothiazin-3-ylidene]-dimethylazanium chloride] | co-localization of MB and ICG in the atherosclerotic zones of the aorta | 7.35 | ~5.25 | 3.13 | ~3 | ~7.4 | 73,000 cm^−1/M | 5.3 | 12.5 | can produce deposition of MB in plaques of rabbits | higher TBRs than those without MB | 5.25 | highly targeted to the atheroma | distinct spots or drops along the inner vessel walls and in the venous thrombus | associated with areas positive for macrophages in the RAM11 staining | seen in specific regions permeating the entire depth of the lesions | localize in both microscopic lesions and atherosclerotic lesions with greater than 60% stenosis
